According to ChEMBL document CHEMBL5143754, “Novel Bcl-2 Inhibitors Selectively Disrupt the Autophagy-Specific Bcl-2-Beclin 1 Protein-Protein Interaction” (ACS Med Chem Lett, 2022):

Columns and labels:
[1] = biological target: T1, Apoptosis regulator Bcl-2 (Homo sapiens, UniProt P10415); test: Inhibition of biotin-linker-Beclin 1 BH3 peptide binding to human C-terminal 6His-tagged Bcl-2 (1 to 218 residues) expressed in Escherichia coli BL21 Star (DE3) pLysS measured after 3 hrs by AlphaLISA assay
T1 sequence (P10415 whole entry, the tested form may be a part): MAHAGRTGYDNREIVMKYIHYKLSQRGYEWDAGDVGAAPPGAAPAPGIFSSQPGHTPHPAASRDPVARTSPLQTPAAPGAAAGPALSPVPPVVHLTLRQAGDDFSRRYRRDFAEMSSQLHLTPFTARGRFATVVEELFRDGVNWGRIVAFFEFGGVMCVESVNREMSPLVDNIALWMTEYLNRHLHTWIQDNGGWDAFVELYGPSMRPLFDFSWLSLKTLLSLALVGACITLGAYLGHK

[2] = Half life in ICR/CD-1 mouse liver microsomes at 2 uM preincubated for 5 mins followed by NADPH regenerating system addition by LC-MS/MS analysis; assay type: ADME, Microsome
[3] = biological target: T1, Apoptosis regulator Bcl-2; test: Inhibition of biotin-linker-Bax BH3 peptide binding to human C-terminal 6His-tagged Bcl-2 (1 to 218 residues) expressed in Escherichia coli BL21 Star (DE3) pLysS measured after 3 hrs by AlphaLISA assay

| Compound | IC50 [1] [µM] | half-life at 2 µM [2] [min] | IC50 [3] [µM] |
| --- | --- | --- | --- |
| CC(C)C(=O)Oc1ccc(C2=NN(C(=O)c3ccc(Br)cc3)C(c3ccccc3)C2)cc1 (racemic) | 5.45 | – | – |
| COC(=O)c1ccc(C2=NN(C(=O)c3ccc(Br)cc3)C(c3ccccc3)C2)cc1 (racemic) | 1.64 | – | – |
| COc1ccc(C(=O)N2N=C(c3ccc(NS(C)(=O)=O)cc3)CC2c2ccco2)cc1 (racemic) | 10.1 | – | – |
| CC(C)OC(=O)c1ccc(C2=NN(C(=O)c3ccc(Br)cc3)C(c3ccccc3)C2)cc1 (racemic) | 0.11 | – | 4.36 |
| CC(C)OC(=O)Nc1ccc(C2=NN(C(=O)c3ccc(Br)cc3)C(c3ccccc3)C2)cc1 (racemic) | 0.0044 | 120 | 0.881 |
| C=CCOC(=O)Nc1ccc(C2=NN(C(=O)c3ccc(Br)cc3)C(c3ccccc3)C2)cc1 (racemic) | 0.0318 | – | 8.83 |
| Cc1ccc(C(=O)N2N=C(c3ccc(NS(C)(=O)=O)cc3)CC2c2ccccc2Br)cc1 (configuration not stated) | – | 2.9 | – |
| CC(C)OC(=O)Nc1ccc(C2=NN(C(=O)c3ccc(Br)cc3)C(c3ccccc3)C2C)cn1 (racemic) | 0.002 | – | 0.157 |
| CS(=O)(=O)Nc1ccc(C2=NN(C(=O)c3ccc([N+](=O)[O-])cc3)C(c3ccco3)C2)cc1 (racemic) | 1.97 | 2.9 | – |
| CC1C(c2ccc(NC(=O)OC(C)(C)C)cc2)=NN(C(=O)c2ccc(Br)cc2)C1c1ccccc1 (racemic) | 0.0274 | – | – |
| CS(=O)(=O)Nc1ccc(C2=NN(C(=O)c3ccc(C#N)cc3)C(c3ccco3)C2)cc1 (racemic) | 7.44 | – | – |
| CS(=O)(=O)Nc1ccc(C2=NN(C(=O)c3ccc(F)cc3)C(c3ccco3)C2)cc1 (racemic) | 12.7 | – | – |
| C#CCCOC(=O)Nc1ccc(C2=NN(C(=O)c3ccc(Br)cc3)C(c3ccccc3)C2)cc1 (racemic) | 0.065 | – | – |
| CCOC(=O)Nc1ccc(C2=NN(C(=O)c3ccc(Br)cc3)C(c3ccccc3)C2)cc1 (racemic) | 0.0328 | – | 6.62 |
| O=C(Nc1ccc(C2=NN(C(=O)c3ccc(Br)cc3)C(c3ccccc3)C2)cc1)OC1CC1 (racemic) | 0.0441 | – | 15.1 |
| CC(C)(C)OC(=O)Nc1ccc(C2=NN(C(=O)c3ccc(Br)cc3)C(c3ccccc3)C2c2ccccc2)cc1 (racemic) | 0.172 | – | – |
| CC(C)(C)OC(=O)Nc1ccc(C2=NN(C(=O)c3ccc(Br)cc3)C(c3ccccc3)C2)cn1 (racemic) | 0.309 | – | – |
| CC(C)COC(=O)Nc1ccc(C2=NN(C(=O)c3ccc(Br)cc3)C(c3ccccc3)C2)cc1 (racemic) | 0.164 | – | – |
| CS(=O)(=O)Nc1ccc(C2=NN(C(=O)c3ccc(C(F)(F)F)cc3)C(c3ccco3)C2)cc1 (racemic) | 2.88 | 2.9 | – |
| CN(C)C(=O)c1ccc(C2=NN(C(=O)c3ccc(Br)cc3)C(c3ccccc3)C2)cc1 (racemic) | 5.91 | – | – |
| Cc1ccc(C(=O)N2N=C(c3ccc(NS(C)(=O)=O)cc3)CC2c2ccco2)cc1 (racemic) | 15.9 | 2.9 | > 10 |
| CC(C)(C)OC(=O)Nc1ccc(C2=NN(C(=O)c3cccnc3)C(c3ccccc3)C2)cc1 (racemic) | 14.5 | – | – |
| CS(=O)(=O)Nc1ccc(C2=NN(C(=O)c3ccc(Cl)cc3)C(c3ccco3)C2)cc1 (racemic) | 2.72 | – | – |

More lines, main results first:

| IC50 [1] [µM] | half-life at 2 µM [2] [min] | Compound | IC50 [3] [µM] |
| --- | --- | --- | --- |
| 0.439 | 120 | CC(C)(C)OC(=O)Nc1ccc(C2=NN(C(=O)c3ccc([N+](=O)[O-])cc3)C(c3ccccc3)C2)cc1 (racemic) | – |
| 4.36 | – | CC(C)(C)OC(=O)Nc1ccc(C2=NN(C(=O)c3ccc(Br)cc3)C(c3cncs3)C2)cc1 (racemic) | – |
| 1.26 | – | CC(C)(C)OC(=O)Nc1ccc(C2=NN(C(=O)c3ccc(Br)cc3)C(c3ccco3)C2)cc1 (racemic) | – |
| 0.262 | 120 | CC(C)(C)OC(=O)Nc1ccc(C2=NN(C(=O)c3ccc(Br)cc3)C(c3ccccc3)C2)cc1 (racemic) | – |
| 3.82 | – | CC(C)(C)OC(=O)Nc1ccc(C2=NN(C(=O)c3ccc(Br)cc3)C(c3ccoc3)C2)cc1 (racemic) | – |
| 1.61 | – | CC(C)(C)OC(=O)Nc1ccc(C2=NN(C(=O)c3ccc(Br)cc3)C(c3nccs3)C2)cc1 (racemic) | – |
| 2.78 | – | CC(C)(C)OC(=O)Nc1ccc(C2=NN(C(=O)c3ccc(Br)cc3)C(c3ccncc3)C2)cc1 (racemic) | – |
| 3.29 | – | Cc1ccc(C(=O)N2N=C(c3ccc(NC(=O)OC(C)(C)C)cc3)CC2c2ccco2)cc1 (racemic) | – |
| 2.1 | – | COC(=O)Nc1ccc(C2=NN(C(=O)c3ccc(Br)cc3)C(c3ccccc3)C2)cc1 (racemic) | – |
| 1.63 | – | CC(C)(C)OC(=O)Nc1ccc(C2=NN(C(=O)c3ccc(Br)cc3)C(c3cccnc3)C2)cc1 (racemic) | – |
| 11.1 | – | CC(C)(C)OC(=O)Nc1cccc(C2=NN(C(=O)c3ccc(Br)cc3)C(c3ccccc3)C2)c1 (racemic) | – |
| 0.65 | – | CC(C)(C)OC(=O)Nc1ccc(C2=NN(C(=O)c3ccc(Br)cc3)C(c3ccccn3)C2)cc1 (racemic) | – |
| 0.372 | – | CC(C)(C)OC(=O)Nc1ccc(C2=NN(C(=O)c3ccc(Br)cc3)C(c3ccccc3)C2)nc1 (racemic) | – |
| 2.47 | 2.9 | CS(=O)(=O)Nc1ccc(C2=NN(C(=O)c3ccc(Br)cc3)C(c3ccco3)C2)cc1 (racemic) | – |
| 9.22 | – | CC(C)(C)NC(=O)Nc1ccc(C2=NN(C(=O)c3ccc(Br)cc3)C(c3ccccc3)C2)cc1 (racemic) | – |
